# In patent publication US4597900A, “Des^2 -glycine^8 -des^22 -calcitonin” (Armour Pharmaceutical Co., priority 1983, dated 1986):
# Where a SMILES comes first, the peptide text is derived from it. Bridges are numbered along the chain shown (N, C = ends).
# Test system: serum calcium concentration
# Assay: Biological assay of calcitonin analogs in vivo: reduction of serum calcium concentration, 2x2 parallel line assay
# Design: species or system Rats
# Description: The biological potency of [Des-Serine^2 -Glycine^8 -Des-Tyrosine^22 ]salmon calcitonin was determined by comparing the reduction of serum calcium concentration which followed administration by graded doses of [Des-Ser^2 -Gly^8 -Des-Tyr^22 ]SCT and synthetic salmon calcitonin standard. Rats were divided into four groups of seven animals, and each group was assigned at random to a dose of standard or test solution. Low and high doses were chosen from the linear portion of the dose-response curve. For the salmon calcitonin standard, the values were 0.7 and 2.1 ng. peptide/100 g. body weight (BW). This dose approximates 3 and 9 MU/100 g. BW. Peptides were given by subcutaneous injection (0.2 ml/100 g. BW) and blood was withdrawn 1 hour later for serum calcium determination. Sera are processed and analyzed within two hours of collection. […]. Results were analyzed by a 2×2 parallel line assay [Gaddum, J. H., J. Pharm. Pharmacol., 6, 345 (1953)]. The standard salmon calcitonin used was independently determined to contain greater than 4,000 IU/mg. [Des-Ser^2 -Gly^8 -Des-Tyr^22 ]SCT assayed at 6900 IU/mg.
SMILES,"biological potency (reduction of serum calcium concentration) (rats, subcutaneous injection, blood withdrawn 1 hour later, compared with synthetic salmon calcitonin standard) [IU/mg]","potency of standard, independently determined (standard salmon calcitonin used in the assay)"
"CC(C)C[C@H](NC(=O)CNC(=O)[C@@H]1CSSC[C@H](N)C(=O)N[C@@H](CC(N)=O)C(=O)N[C@@H](CC(C)C)C(=O)N[C@@H](CO)C(=O)N[C@@H]([C@@H](C)O)C(=O)N1)C(=O)NCC(=O)N[C@@H](CCCCN)C(=O)N[C@@H](CC(C)C)C(=O)N[C@@H](CO)C(=O)N[C@@H](CCC(N)=O)C(=O)N[C@@H](CCC(=O)O)C(=O)N[C@@H](CC(C)C)C(=O)N[C@@H](Cc1c[nH]cn1)C(=O)N[C@@H](CCCCN)C(=O)N[C@@H](CC(C)C)C(=O)N[C@@H](CCC(N)=O)C(=O)N[C@H](C(=O)N1CCC[C@H]1C(=O)N[C@@H](CCCNC(=N)N)C(=O)N[C@H](C(=O)N[C@@H](CC(N)=O)C(=O)N[C@H](C(=O)NCC(=O)N[C@@H](CO)C(=O)NCC(=O)N[C@H](C(=O)N1CCC[C@H]1C(N)=O)[C@@H](C)O)[C@@H](C)O)[C@@H](C)O)[C@@H](C)O [[Des-Ser^2 -Gly^8 -Des-Tyr^22]SCT, [Des-Serine^2 -Glycine^8 -Des-Tyrosine^22]salmon calcitonin] (H-CNLSTCGLGKLSQELHKLQTPRTNTGSGTP-NH2; disulfide 1-6)",6900,–
"CC(C)C[C@H](NC(=O)[C@H](CCCCN)NC(=O)CNC(=O)[C@H](CC(C)C)NC(=O)[C@@H](NC(=O)[C@@H]1CSSC[C@H](N)C(=O)N[C@@H](CO)C(=O)N[C@@H](CC(N)=O)C(=O)N[C@@H](CC(C)C)C(=O)N[C@@H](CO)C(=O)N[C@@H]([C@@H](C)O)C(=O)N1)C(C)C)C(=O)N[C@@H](CO)C(=O)N[C@@H](CCC(N)=O)C(=O)N[C@@H](CCC(=O)O)C(=O)N[C@@H](CC(C)C)C(=O)N[C@@H](Cc1c[nH]cn1)C(=O)N[C@@H](CCCCN)C(=O)N[C@@H](CC(C)C)C(=O)N[C@@H](CCC(N)=O)C(=O)N[C@H](C(=O)N[C@@H](Cc1ccc(O)cc1)C(=O)N1CCC[C@H]1C(=O)N[C@@H](CCCNC(=N)N)C(=O)N[C@H](C(=O)N[C@@H](CC(N)=O)C(=O)N[C@H](C(=O)NCC(=O)N[C@@H](CO)C(=O)NCC(=O)N[C@H](C(=O)N1CCC[C@H]1C(N)=O)[C@@H](C)O)[C@@H](C)O)[C@@H](C)O)[C@@H](C)O [standard salmon calcitonin, Salmon calcitonin]",–,"greater than 4,000 IU/mg"
